Data on twelve compounds can be found in patent US10537558B2 (Bantam Pharmaceutical, LLC, priority 2015, dated 2020).

For this test, the system named is BJAB cells. As to the kind of experiment: BJAB cell proliferation (Cell Titer Glo). Type of test: cell-based. The settings on record: Homo sapiens, read-out: EC50. The method, boiled down:
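BJAB cells exposed to serially diluted compounds (0.1% DMSO final) for about 72 h at 37 °C. Proliferation read by Cell Titer Glo luminescence as percent of untreated controls; EC50 from non-linear regression of dose-response data.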
On to `Cc1nn(-c2nc(-c3ccc(Cl)c(Cl)c3)c(SC(C)C)s2)c(C(=O)O)c1-c1cccc2ccn(C)c12` [Compound 155, 1-(4-(3,4-dichlorophenyl)-5-(isopropylthio)thiazol-2-yl)-3-methyl-4-(1-methyl-1H-indol-7-yl)-1H-pyrazole-5-carboxylic Acid], for which the EC50 (usually the concentration at which the effect is half-maximal) lay in the range of 5 to 10 µM.
Next, `CC(C)Sc1sc(-n2cccn2)nc1-c1ccc(Cl)c(Cl)c1` [Compound 156, 4-(3,4-dichlorophenyl)-5-(isopropylthio)-2-(1H-pyrazol-1-yl)thiazole]: greater than 25 µM.
For the compound `Cc1cc(-c2c(C)nn(-c3nc(-c4ccccc4Cl)c(SC(C)C)s3)c2C(=O)O)cc(C)n1` [Compound 157, 1-(4-(2-chlorophenyl)-5-(isopropylthio)thiazol-2-yl)-4-(2,6-dimethylpyridin-4-yl)-3-methyl-1H-pyrazole-5-carboxylic Acid], the EC50 fell in the range of 1 to 5 µM.
To `Cc1cc(-c2c(C)nn(-c3nc(-c4cccc(Cl)c4)c(SC(C)C)s3)c2C(=O)O)cc(C)n1` [Compound 158, 1-(4-(3-chlorophenyl)-5-(isopropylthio)thiazol-2-yl)-4-(2,6-dimethylpyridin-4-yl)-3-methyl-1H-pyrazole-5-carboxylic Acid] belongs 5 to 10 µM; to `Cc1cc(-c2c(C)nn(-c3nc(-c4ccc(Cl)cc4)c(SC(C)C)s3)c2C(=O)O)cc(C)n1` [Compound 159, 1-(4-(4-chlorophenyl)-5-(isopropylthio)thiazol-2-yl)-4-(2,6-dimethylpyridin-4-yl)-3-methyl-1H-pyrazole-5-carboxylic Acid], less than 1 µM.
Consider `Cc1cc(-c2c(C)nn(-c3nc(-c4ccc(Cl)cc4Cl)c(SC(C)C)s3)c2C(=O)O)cc(C)n1` [Compound 160, 1-(4-(2,4-dichlorophenyl)-5-(isopropylthio)thiazol-2-yl)-4-(2,6-dimethylpyridin-4-yl)-3-methyl-1H-pyrazole-5-carboxylic Acid], for which the EC50 is less than 1 µM.
To `Cc1cc(-c2c(C)nn(-c3nc(-c4cc(Cl)ccc4Cl)c(SC(C)C)s3)c2C(=O)O)cc(C)n1` [Compound 161, 1-(4-(2,5-dichlorophenyl)-5-(isopropylthio)thiazol-2-yl)-4-(2,6-dimethylpyridin-4-yl)-3-methyl-1H-pyrazole-5-carboxylic acid] belongs 5 to 10 µM; to `Cc1cc(-c2c(C)nn(-c3nc(C#Cc4ccccc4)c(SC(C)C)s3)c2C(=O)O)cc(C)n1` [Compound 162, 4-(2,6-dimethylpyridin-4-yl)-1-(5-(isopropylthio)-4-(phenylethynyl)thiazol-2-yl)-3-methyl-1H-pyrazole-5-carboxylic acid], 5 to 10 µM; to `Cc1cc(-c2c(C)nn(-c3nc(Cc4ccccc4)c(SC(C)C)s3)c2C(=O)O)cc(C)n1` [Compound 163, 1-(4-benzyl-5-(isopropylthio)thiazol-2-yl)-4-(2,6-dimethylpyridin-4-yl)-3-methyl-1H-pyrazole-5-carboxylic acid], 10 to 25 µM.
On to `COc1cc(F)cc(-c2c(C)nn(-c3nc(-c4ccc(Cl)c(Cl)c4)c(SC(C)C)s3)c2C(=O)O)c1` [Compound 164, 1-(4-(3,4-dichlorophenyl)-5-(isopropylthio)thiazol-2-yl)-4-(3-fluoro-5-methoxyphenyl)-3-methyl-1H-pyrazole-5-carboxylic Acid], for which the EC50 was in the range of 1 to 5 µM.
As to `COc1cc(C)cc(-c2c(C)nn(-c3nc(-c4ccc(Cl)c(Cl)c4)c(SC(C)C)s3)c2C(=O)O)c1` [Compound 165, 1-(4-(3,4-dichlorophenyl)-5-(isopropylthio)thiazol-2-yl)-4-(3-methoxy-5-methylphenyl)-3-methyl-1H-pyrazole-5-carboxylic Acid], the EC50 lay within 1 to 5 µM.
Next, `COc1cc(-c2c(C)nn(-c3nc(-c4ccc(Cl)c(Cl)c4)c(SC(C)C)s3)c2C(=O)O)ccn1` [Compound 166, 1-(4-(3,4-dichlorophenyl)-5-(isopropylthio)thiazol-2-yl)-4-(2-methoxypyridin-4-yl)-3-methyl-1H-pyrazole-5-carboxylic acid]: 5 to 10 µM.
